{"source": "patent US12729377B2", "about": "“RNAi agents and compositions for inhibiting expression of angiopoietin-like 3 (ANGPTL3), and methods of use” (Arrowhead Pharmaceuticals, Inc., priority 2017, dated 2026)", "key": {"ANGPTL3 gene [1]": {"tested_on": "ANGPTL3 gene", "assay": "Example 6: serum HDL in mice", "assay_type": "in vivo, C57bl/6 mice", "experimental": "(§1) To assess the in vivo activity of additional ANGPTL3 RNAi agents that are designed to target position 304 on the ANGPTL3 gene, six- to eight-week-old female C57bl/6 mice were used. Pre-dose serum samples were taken at day −1 after a four hour fast. At day 1, each mouse was given a single subcutaneous administration of 200 μl containing 0.5 mg/kg (mpk) of an ANGPTL3 RNAi agent in D5W (dextrose in 5% water), or control (D5W) with no RNAi agent, according to the dosing groups recited in Table 25.\n(§2) Each of the RNAi agents included a modified sequence and an N-acetyl-galactosamine-containing targeting ligand conjugated to the 5′ terminal end of the sense strand. (See Tables 3, 4, and 5 for modified sequences and targeting ligand structures). The injections were performed between the skin and muscle (i.e. subcutaneous injections) into the loose skin over the neck and shoulder area. Three (3) mice in each group were tested (n=3). Serum was collected on days 8, 15, 22, 30, and on day 43 for certain groups (i.e., Groups 1, 2, 5, and 10 only). Mice were fasted for four hours prior to each collection. ANGPTL3 protein levels in serum were measured by ELISA assay (R&D Systems), according to the manufacturer's recommendations. Triglycerides, total cholesterol, high-density lipoprotein (HDL), and low-density lipoprotein (LDL) in serum were measured on a Cobas® Integra 400 (Roche Diagnostics), according to the manufacturer's recommendations.\n(§3) The ANGPTL3 protein levels, triglyceride levels, total cholesterol levels, HDL levels, and LDL levels for each animal were normalized. For normalization, the level of ANGPTL3 protein, triglyceride, HDL, and total cholesterol, respectively, for each animal at a time point, was divided by the pre-treatment level of expression in that animal (in this case at day −1) to determine the ratio of expression “normalized to pre-treatment.” Expression at a specific time point was then normalized to the D5W control group by dividing the “normalized to pre-treatment” ratio for an individual animal by the mean “normalized to pretreatment” ratio of all mice in the D5W control group."}, "ANGPTL3 gene [2]": {"tested_on": "ANGPTL3 gene", "assay": "Example 6: serum LDL in mice", "assay_type": "in vivo, C57bl/6 mice", "experimental": "as §1, §2, §3"}, "ANGPTL3 gene [3]": {"tested_on": "ANGPTL3 gene", "assay": "Example 9: serum triglycerides in cynomolgus monkeys", "assay_type": "in vivo, cynomolgus macaque (Macaca fascicularis)", "details": "2.0 mg/kg single SC injection day 1, cynos, n=3", "experimental": "Additional ANGPTL3 RNAi agents were evaluated in cynomolgus monkeys. On day 1, cynomolgus macaque (Macaca fascicularis) primates (also referred to herein as “cynos”) were administered a single subcutaneous injection of 0.3 mL/kg (approximately 2-3 mL volume, depending on animal mass) containing 2.0 mg/kg of an ANGPTL3 RNAi agent, which included either AD05488, AD05743, AD05775, or AD05841, each formulated in saline. […] ANGPTL3 RNAi agents AD05488, AD05743, and AD05775 included nucleotide sequences designed to target position 304 of the ANGPTL3 gene. ANGPTL3 RNAi agent AD05841 included nucleotide sequences designed to target position 1035 of the ANGPTL3 gene.\nThree (3) cynos in each group were tested (n=3). Blood samples were drawn and serum samples were analyzed on days −14 (predose), −7 (predose), 1 (pre-dose), 8, 15, 22, 29, and 35. Cynos were fasted overnight prior to each collection. ANGPTL3 protein levels in serum were measured by ELISA assay (R&D Systems), according to the manufacturer's recommendations. Triglycerides, total cholesterol, high-density lipoprotein (HDL), and low-density lipoprotein (LDL) in serum were measured on a Cobas® Integra 400 (Roche Diagnostics), according to the manufacturer's recommendations.\nThe ANGPTL3 protein levels, triglyceride levels, total cholesterol levels, HDL levels, and LDL levels for each animal were normalized. For normalization, the level of ANGPTL3 protein, triglyceride, HDL, and total cholesterol, respectively, for each animal at a time point, was divided by the average pre-treatment level of expression in that animal (in this case at days −14, −7, and 1) to determine the ratio of expression “normalized to pre-treatment.”"}, "ANGPTL3 gene [4]": {"tested_on": "ANGPTL3 gene", "assay": "Example 11: dose response, serum LDL in mice", "assay_type": "in vivo, C57bl/6 mice", "experimental": "as §1, with “dose response” for “in vivo activity”, “of” for “of additional”, “agent AD05488,” for “agents that are designed to target position 304 on the ANGPTL3 gene,”, “the respective” for “0.5”, “dose” for “(mpk)”, “53:” for “25.”\nas §2, with “The” for “Each of the”, “agent tested (AD05488)” for “agents”, “Four (4)” for “Three (3)”, “(n=4).” for “(n=3).”, “22,” for “22, 30,”, “29.” for “on day 43 for certain groups (i.e., Groups 1, 2, 5, and 10 only).”\nas §3"}, "[5]": {"details": "Day 8, 0.5 mg/kg single SC injection on day 1, n=3"}, "[6]": {"details": "Day 15, 0.5 mg/kg single SC injection on day 1, n=3"}, "[7]": {"details": "Day 22, 0.5 mg/kg single SC injection on day 1, n=3"}, "[8]": {"details": "Day 30, 0.5 mg/kg single SC injection on day 1, n=3"}, "[9]": {"details": "Day 43, 0.5 mg/kg single SC injection on day 1, n=3"}}, "note": "In the oligonucleotide strings, read from the 5' end, every base follows the letter of its sugar. An asterisk marks phosphorothioate; unmarked linkages are phosphodiester. Other units and linkages are bracketed, terminal groups are in braces. A string of capitals states the bases alone. {NAG37} = tridentate N-acetyl-galactosamine targeting ligand, structure (NAG37)s; [invAb] = inverted abasic unit; m = 2'-O-methyl; f = 2'-fluoro", "data": [{"substance": "AD05488: RNAi agent duplex: antisense AM07235-AS, sense AM07234-SS (antisense mU*fA*mC*fUmGfAmUfCmAfAmAfUmAfUmGfUmUfGmAfG*mC; sense {NAG37}*[invAb]*mGmCmUmCmAmAmCmAfUfAfUmUmUmGmAmUmCmAmGmUmA*[invAb])", "values": [{"measurement": "Avg HDL, normalized to pre-treatment and control", "setting": "ANGPTL3 gene [1]; [5]", "value": 0.783}, {"measurement": "Avg HDL, normalized to pre-treatment and control", "setting": "ANGPTL3 gene [1]; [6]", "value": 0.763}, {"measurement": "Avg HDL, normalized to pre-treatment and control", "setting": "ANGPTL3 gene [1]; [7]", "value": 0.793}, {"measurement": "Avg HDL, normalized to pre-treatment and control", "setting": "ANGPTL3 gene [1]; [8]", "value": 0.956}, {"measurement": "Avg HDL, normalized to pre-treatment and control", "setting": "ANGPTL3 gene [1]; [9]", "value": 1.088}, {"measurement": "Avg LDL, normalized to pre-treatment and control", "setting": "ANGPTL3 gene [2]; [5]", "value": 0.805}, {"measurement": "Avg LDL, normalized to pre-treatment and control", "setting": "ANGPTL3 gene [2]; [6]", "value": 0.880}, {"measurement": "Avg LDL, normalized to pre-treatment and control", "setting": "ANGPTL3 gene [2]; [7]", "value": 0.991}, {"measurement": "Avg LDL, normalized to pre-treatment and control", "setting": "ANGPTL3 gene [2]; [8]", "value": 1.093}, {"measurement": "Avg LDL, normalized to pre-treatment and control", "setting": "ANGPTL3 gene [2]; [9]", "value": 0.970}, {"measurement": "Average Triglycerides Normalized to Pre-Treatment", "setting": "ANGPTL3 gene [3]; Day 8", "value": 0.413}, {"measurement": "Average Triglycerides Normalized to Pre-Treatment", "setting": "ANGPTL3 gene [3]; Day 15", "value": 0.403}, {"measurement": "Average Triglycerides Normalized to Pre-Treatment", "setting": "ANGPTL3 gene [3]; Day 22", "value": 0.288}, {"measurement": "Average Triglycerides Normalized to Pre-Treatment", "setting": "ANGPTL3 gene [3]; Day 29", "value": 0.344}, {"measurement": "Average Triglycerides Normalized to Pre-Treatment", "setting": "ANGPTL3 gene [3]; Day 35", "value": 0.350}, {"measurement": "Avg LDL Normalized to Pre-Treatment and Control", "setting": "ANGPTL3 gene [4]; 0.05 mg/kg single sc day 1, Day 8", "value": 0.798}, {"measurement": "Avg LDL Normalized to Pre-Treatment and Control", "setting": "ANGPTL3 gene [4]; 0.05 mg/kg single sc day 1, Day 15", "value": 1.147}, {"measurement": "Avg LDL Normalized to Pre-Treatment and Control", "setting": "ANGPTL3 gene [4]; 0.05 mg/kg single sc day 1, Day 22", "value": 0.772}, {"measurement": "Avg LDL Normalized to Pre-Treatment and Control", "setting": "ANGPTL3 gene [4]; 0.05 mg/kg single sc day 1, Day 29", "value": 0.822}, {"measurement": "Avg LDL Normalized to Pre-Treatment and Control", "setting": "ANGPTL3 gene [4]; 0.1 mg/kg single sc day 1, Day 8", "value": 0.878}, {"measurement": "Avg LDL Normalized to Pre-Treatment and Control", "setting": "ANGPTL3 gene [4]; 0.1 mg/kg single sc day 1, Day 15", "value": 1.153}, {"measurement": "Avg LDL Normalized to Pre-Treatment and Control", "setting": "ANGPTL3 gene [4]; 0.1 mg/kg single sc day 1, Day 22", "value": 0.732}, {"measurement": "Avg LDL Normalized to Pre-Treatment and Control", "setting": "ANGPTL3 gene [4]; 0.1 mg/kg single sc day 1, Day 29", "value": 0.845}, {"measurement": "Avg LDL Normalized to Pre-Treatment and Control", "setting": "ANGPTL3 gene [4]; 0.5 mg/kg single sc day 1, Day 8", "value": 0.816}, {"measurement": "Avg LDL Normalized to Pre-Treatment and Control", "setting": "ANGPTL3 gene [4]; 0.5 mg/kg single sc day 1, Day 15", "value": 1.137}, {"measurement": "Avg LDL Normalized to Pre-Treatment and Control", "setting": "ANGPTL3 gene [4]; 0.5 mg/kg single sc day 1, Day 22", "value": 0.866}, {"measurement": "Avg LDL Normalized to Pre-Treatment and Control", "setting": "ANGPTL3 gene [4]; 0.5 mg/kg single sc day 1, Day 29", "value": 0.896}, {"measurement": "Avg LDL Normalized to Pre-Treatment and Control", "setting": "ANGPTL3 gene [4]; 1.0 mg/kg single sc day 1, Day 8", "value": 0.760}, {"measurement": "Avg LDL Normalized to Pre-Treatment and Control", "setting": "ANGPTL3 gene [4]; 1.0 mg/kg single sc day 1, Day 15", "value": 1.145}, {"measurement": "Avg LDL Normalized to Pre-Treatment and Control", "setting": "ANGPTL3 gene [4]; 1.0 mg/kg single sc day 1, Day 22", "value": 0.993}, {"measurement": "Avg LDL Normalized to Pre-Treatment and Control", "setting": "ANGPTL3 gene [4]; 1.0 mg/kg single sc day 1, Day 29", "value": 1.123}, {"measurement": "Avg LDL Normalized to Pre-Treatment and Control", "setting": "ANGPTL3 gene [4]; 2.5 mg/kg single sc day 1, Day 8", "value": 0.805}, {"measurement": "Avg LDL Normalized to Pre-Treatment and Control", "setting": "ANGPTL3 gene [4]; 2.5 mg/kg single sc day 1, Day 15", "value": 1.185}, {"measurement": "Avg LDL Normalized to Pre-Treatment and Control", "setting": "ANGPTL3 gene [4]; 2.5 mg/kg single sc day 1, Day 22", "value": 0.915}, {"measurement": "Avg LDL Normalized to Pre-Treatment and Control", "setting": "ANGPTL3 gene [4]; 2.5 mg/kg single sc day 1, Day 29", "value": 0.814}, {"measurement": "Avg LDL Normalized to Pre-Treatment and Control", "setting": "ANGPTL3 gene [4]; 5.0 mg/kg single sc day 1, Day 8", "value": 0.802}, {"measurement": "Avg LDL Normalized to Pre-Treatment and Control", "setting": "ANGPTL3 gene [4]; 5.0 mg/kg single sc day 1, Day 15", "value": 1.170}, {"measurement": "Avg LDL Normalized to Pre-Treatment and Control", "setting": "ANGPTL3 gene [4]; 5.0 mg/kg single sc day 1, Day 22", "value": 0.909}, {"measurement": "Avg LDL Normalized to Pre-Treatment and Control", "setting": "ANGPTL3 gene [4]; 5.0 mg/kg single sc day 1, Day 29", "value": 0.932}]}]}
